In patent US12466829B2, “Spirocyclic piperidine melanocortin subtype-2 receptor (MC2R) antagonists and uses thereof” (Crinetics Pharmaceuticals, Inc., priority 2019, dated 2025):

What follows are compounds tested against T1, hMC2 receptor (Homo sapiens, UniProt Q01718) (assay: hMC2 membrane binding assay ([125I]ACTH (1-39) Tyr23, SPA)). Conditions: crude membranes of CRE-bla-CHO-K1 cells expressing hMC2 receptor and hMRAP; 0.2 nM [125I]ACTH (1-39) Tyr23; 1.5 hours at room temperature; read-out: MC2R binding potency.
T1 construct: host or cells: CRE-bla-CHO-K1 cells
T1 sequence (Q01718 whole entry): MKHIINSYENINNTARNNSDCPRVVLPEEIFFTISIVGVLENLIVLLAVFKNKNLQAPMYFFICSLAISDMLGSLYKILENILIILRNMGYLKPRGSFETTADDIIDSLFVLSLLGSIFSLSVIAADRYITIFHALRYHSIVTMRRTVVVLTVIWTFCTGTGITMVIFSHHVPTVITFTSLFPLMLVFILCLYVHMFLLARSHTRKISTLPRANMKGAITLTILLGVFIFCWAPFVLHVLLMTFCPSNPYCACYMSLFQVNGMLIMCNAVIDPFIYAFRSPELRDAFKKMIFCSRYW
T1 sequence (Q8TCY5 whole entry partner): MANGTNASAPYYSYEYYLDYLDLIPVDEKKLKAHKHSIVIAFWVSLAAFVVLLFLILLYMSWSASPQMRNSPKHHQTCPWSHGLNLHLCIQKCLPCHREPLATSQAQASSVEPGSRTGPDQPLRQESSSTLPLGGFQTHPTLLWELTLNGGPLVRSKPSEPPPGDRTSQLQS
Procedure: Crude membrane fractions are prepared from CRE-bla-CHO-K1 cells stably expressing hMC2 receptor and hMRAP accessory protein (Thermo Fisher). The cells are grown to 85-100% confluence on standard tissue culture dishes in GlutaMax DMEM growth media (Gibco) with following additives: 10% dialyzed FBS (Gemini), 0.1 mM NEAA (Gibco), 25 mM HEPES (Gibco), 5 μg/mL blasticidin (Goldbio), 100 μg/mL zeocin (Invitrogen), 600 μg/mL hygromycin (Goldbio). To prepare membranes, cells are scraped and collected in 1× Dulbecco's phosphate buffered saline (Corning) and then pelleted at 1000 RPM's. The cell pellet is reconstituted in membrane preparation buffer (20 mM HEPES, 6 mM MgCl2 and 1 mM EGTA, protease inhibitor tablets (Pierce) adjusted to pH 7.4), homogenized using a dounce homogenizer, and the resulting membrane fraction is pelleted by centrifugation at 12,000 RPM's. The membrane pellet is resuspended in membrane preparation buffer, snap freezed and stored at −80° C. for later use.
The hMC2 membrane binding assay utilizes the following components: radiolabel [^125I]ACTH (1-39) Tyr23 (PerkinElmer), wheatgerm agglutinin coated PVT SPA beads (PerkinElmer), crude hMC2R membranes, and compounds. Briefly hMC2R membranes are incubated with SPA beads in binding assay buffer (50 mM HEPES, 5 mM MgCl2, 1 mM CaCl2), 0.2% BSA, protease inhibitor tablets (Pierce) adjusted to pH7.4) prior to assay initiation. […] Assay plates are read using a Top Count NXT and Ki values for compounds are determined using a GraphPad Prism 6 non-linear regression analysis.
Compound `CCOc1ncccc1-c1ccc2c(n1)N([C@H]1CCNC1)CC21CCN(c2ccc(C(F)(F)F)cc2C#N)CC1` [1-53, 2-[6′-(2-ethoxypyridin-3-yl)-1′-[(3S)-pyrrolidin-3-yl]-1′,2′-dihydrospiro[piperidine-4,3′-pyrrolo[2,3-b]pyridin]-1-yl]-5-(trifluoromethyl)benzonitrile] has a Ki of 10 to 100 nM.
For `CCOc1ncccc1-c1ccc2c(n1)N(CCCN)CC21CCN(c2ccc(C(F)(F)F)cc2C#N)CC1` [1-54, 2-[1′-(3-aminopropyl)-6′-(2-ethoxypyridin-3-yl)-1′,2′-dihydrospiro[piperidine-4,3′-pyrrolo[2,3-b]pyridin]-1-yl]-5-(trifluoromethyl)benzonitrile], the Ki was less than 10 nM.
`CCOc1ncccc1-c1ccc2c(n1)N(C(=O)NCCN)CC21CCN(c2ccc(C(F)(F)F)cc2C#N)CC1` [1-55, N-(2-aminoethyl)-1-[2-cyano-4-(trifluoromethyl)phenyl]-6′-(2-ethoxypyridin-3-yl)-1′,2′-dihydrospiro[piperidine-4,3′-pyrrolo[2,3-b]pyridine]-1′-carboxamide] gave a Ki of less than 10 nM.
`CCOc1ncccc1-c1ccc2c(n1)N(C(=O)NC[C@H](C)N)CC21CCN(c2ccc(C(F)(F)F)cc2C#N)CC1` [1-56, N-[(2S)-2-aminopropyl]-1-[2-cyano-4-(trifluoromethyl)phenyl]-6′-(2-ethoxypyridin-3-yl)-1′,2′-dihydrospiro[piperidine-4,3′-pyrrolo[2,3-b]pyridine]-1′-carboxamide] showed a Ki of 10 to 100 nM.
`CCOc1ncccc1-c1ccc2c(n1)N(C(=O)N[C@@H]1CCNC1)CC21CCN(c2ccc(C(F)(F)F)cc2C#N)CC1` [1-57, 1-[2-cyano-4-(trifluoromethyl)phenyl]-6′-(2-ethoxypyridin-3-yl)-N-[(3R)-pyrrolidin-3-yl]-1′,2′-dihydrospiro[piperidine-4,3′-pyrrolo[2,3-b]pyridine]-1′-carboxamide] gave a Ki of 10 to 100 nM.
Work on `CCOc1ncccc1-c1ccc2c(n1)N(C(=O)CCN(C)C)CC21CCN(c2ccc(C(F)(F)F)cc2C#N)CC1` [1-58, 2-{1′-[3-(dimethylamino)propanoyl]-6′-(2-ethoxypyridin-3-yl)-1′,2′-dihydrospiro[piperidine-4,3′-pyrrolo[2,3-b]pyridin]-1-yl}-5-(trifluoromethyl)benzonitrile] yielded a Ki of less than 10 nM.
Compound `CCOc1ncccc1-c1ccc2c(n1)N(C(=O)NCCNC)CC21CCN(c2ccc(C(F)(F)F)cc2C#N)CC1` [1-59, 1-[2-cyano-4-(trifluoromethyl)phenyl]-6′-(2-ethoxypyridin-3-yl)-N-[2-(methylamino)ethyl]-1′,2′-dihydrospiro[piperidine-4,3′-pyrrolo[2,3-b]pyridine]-1′-carboxamide] has a Ki of less than 10 nM.
Compound `CCOc1ncccc1-c1ccc2c(n1)N(CCN)C(=O)C21CCN(c2ccc(C(F)(F)F)cc2C#N)CC1` [1-60, 2-[1′-(2-aminoethyl)-6′-(2-ethoxypyridin-3-yl)-2′-oxo-1′,2′-dihydrospiro[piperidine-4,3′-pyrrolo[2,3-b]pyridin]-1-yl]-5-(trifluoromethyl)benzonitrile] has a Ki of less than 10 nM.
In the case of `CCOc1ncccc1-c1ccc2c(n1)N(C[C@@H](C)N)C(=O)C21CCN(c2ccc(C(F)(F)F)cc2C#N)CC1` [1-61, 2-{1′-[(2R)-2-aminopropyl]-6′-(2-ethoxypyridin-3-yl)-2′-oxo-1′,2′-dihydrospiro[piperidine-4,3′-pyrrolo[2,3-b]pyridin]-1-yl}-5-(trifluoromethyl)benzonitrile], the Ki is reported as less than 10 nM.
For `CCOc1ncccc1-c1ccc2c(n1)N(CCN(C)C)C(=O)C21CCN(c2ccc(C(F)(F)F)cc2C#N)CC1` [1-62, 2-{1′-[2-(dimethylamino)ethyl]-6′-(2-ethoxypyridin-3-yl)-2′-oxo-1′,2′-dihydrospiro[piperidine-4,3′-pyrrolo[2,3-b]pyridin]-1-yl}-5-(trifluoromethyl)benzonitrile], the Ki was less than 10 nM.
`CCOc1ncccc1-c1ccc2c(n1)N(CCNC)C(=O)C21CCN(c2ccc(C(F)(F)F)cc2C#N)CC1` [1-63, 2-[6′-(2-ethoxypyridin-3-yl)-1′-[2-(methylamino)ethyl]-2′-oxo-1′,2′-dihydrospiro[piperidine-4,3′-pyrrolo[2,3-b]pyridin]-1-yl]-5-(trifluoromethyl)benzonitrile] gave a Ki of less than 10 nM.
For `CCOc1ncccc1-c1ccc2c(c1)N(CCN)C(=O)NC21CCN(c2ccc(C(F)(F)F)cc2C#N)CC1` [1-64, 2-[1′-(2-aminoethyl)-7′-(2-ethoxypyridin-3-yl)-2′-oxo-2′,3′-dihydro-1′H-spiro[piperidine-4,4′-quinazolin]-1-yl]-5-(trifluoromethyl)benzonitrile], the Ki was less than 10 nM.
Compound `CCOc1ncccc1-c1ccc2c(c1)N(CCNC)C(=O)NC21CCN(c2ccc(C(F)(F)F)cc2C#N)CC1` [1-65, 2-[7′-(2-ethoxypyridin-3-yl)-1′-[2-(methylamino)ethyl]-2′-oxo-2′,3′-dihydro-1′H-spiro[piperidine-4,4′-quinazolin]-1-yl]-5-(trifluoromethyl)benzonitrile] has a Ki of less than 10 nM.
Compound `CCOc1ncccc1-c1ccc2c(c1)N(CCN)C(=O)CC21CCN(c2ccc(C(F)(F)F)cc2C#N)CC1` [1-66, 2-[1′-(2-aminoethyl)-7′-(2-ethoxypyridin-3-yl)-2′-oxo-2′,3′-dihydro-1′H-spiro[piperidine-4,4′-quinolin]-1-yl]-5-(trifluoromethyl)benzonitrile] has a Ki of 10 to 100 nM.
Compound `CCOc1ncccc1-c1ccc2c(c1)N(C[C@H](C)N)C(=O)CC21CCN(c2ccc(C(F)(F)F)cc2C#N)CC1` [1-68, 2-{1′-[(2S)-2-aminopropyl]-7′-(2-ethoxypyridin-3-yl)-2′-oxo-2′,3′-dihydro-1′H-spiro[piperidine-4,4′-quinolin]-1-yl}-5-(trifluoromethyl)benzonitrile] has a Ki of 10 to 100 nM.
Compound `CCOc1ncccc1-c1ccc2c(c1)N(CCNC)C(=O)CC21CCN(c2ccc(C(F)(F)F)cc2C#N)CC1` [1-69, 2-[7′-(2-ethoxypyridin-3-yl)-1′-[2-(methylamino)ethyl]-2′-oxo-2′,3′-dihydro-1′H-spiro[piperidine-4,4′-quinolin]-1-yl]-5-(trifluoromethyl)benzonitrile] has a Ki of 10 to 100 nM.
With `CCOc1ncccc1-c1ccc2c(c1)N(C[C@@H](C)N)C(=O)CC21CCN(c2ccc(C(F)(F)F)cc2C#N)CC1` [1-70, 2-{1′-[(2R)-2-aminopropyl]-7′-(2-ethoxypyridin-3-yl)-2′-oxo-2′,3′-dihydro-1′H-spiro[piperidine-4,4′-quinolin]-1-yl}-5-(trifluoromethyl)benzonitrile] the Ki was 10 to 100 nM.
